# In US8367695B2, “Condensed tetrahydroquinoline derivative and use thereof for medical purposes” (Mitsubishi Tanabe Pharma Corporation, priority 2007, dated 2013):
# Where two headings read alike, the source gives them in different places.
# Target: T1, Glucocorticoid Receptor (GR), CHO-GRE-Luc #35 cells (Cricetulus griseus, UniProt A0A9J7F8I2)
# T1 sequence (A0A9J7F8I2 1-774): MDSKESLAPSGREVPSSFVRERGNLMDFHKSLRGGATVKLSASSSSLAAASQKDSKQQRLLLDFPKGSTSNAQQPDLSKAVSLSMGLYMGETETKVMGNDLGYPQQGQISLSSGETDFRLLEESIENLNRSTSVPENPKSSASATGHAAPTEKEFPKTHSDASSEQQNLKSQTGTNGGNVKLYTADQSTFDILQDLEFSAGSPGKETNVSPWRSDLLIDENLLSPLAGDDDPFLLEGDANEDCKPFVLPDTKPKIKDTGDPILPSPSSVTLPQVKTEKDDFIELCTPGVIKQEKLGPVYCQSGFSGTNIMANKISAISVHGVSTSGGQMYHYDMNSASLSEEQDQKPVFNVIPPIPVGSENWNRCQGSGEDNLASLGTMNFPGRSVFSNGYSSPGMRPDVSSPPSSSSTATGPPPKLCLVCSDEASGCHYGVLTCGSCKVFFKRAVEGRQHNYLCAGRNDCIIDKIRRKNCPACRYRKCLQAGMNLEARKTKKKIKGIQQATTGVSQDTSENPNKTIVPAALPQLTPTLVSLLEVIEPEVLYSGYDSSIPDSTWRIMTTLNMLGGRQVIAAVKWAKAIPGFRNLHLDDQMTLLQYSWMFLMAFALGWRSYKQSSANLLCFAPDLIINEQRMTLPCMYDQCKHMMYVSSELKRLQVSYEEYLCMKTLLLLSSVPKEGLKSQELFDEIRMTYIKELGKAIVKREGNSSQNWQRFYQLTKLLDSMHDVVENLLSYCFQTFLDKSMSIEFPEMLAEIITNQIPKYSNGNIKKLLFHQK
# Assay: Glucocorticoid receptor function test using transgenic-recombinant cell (GRE-luciferase)
# Assay type: cell-based
# Method: Glucocorticoid Receptor Function Test Using Transgenic-Recombinant Cell
# Transgenic-recombinant cell was prepared by our company (Yokohama, JP). In Hokkaido System Science Co., Ltd., a cis-element wherein two glucocorticoid responsive elements (GRE) present in the […] promoter region of mouse were connected in tandem was produced on order from synthetic DNA. The gene was incorporated into a plasmid vector having a gene encoding luciferase enzyme. The plasmid was incorporated into CHO-K1 cell to give a transfectant. The expression cell (CHO-GRE-Luc #35) produces luciferase instead of the object protein under regulation of a transcription region involved in the expression of the object protein. That is, using the cell, a substance that controls production of the object protein can be screened for by replacing the substance with the luciferase activity. Fetal Bovine Serum (FBS), L-glutamine, penicillin-streptomycin solution, PBS(−), trypsin-EDTA solution, Opti-MEM medium and G418 were obtained from GIBCO (Auckland, N.Z.). A 10 cm dish and DMEM:HAM′S F12 medium were obtained from IWAKI (Chiba, JP). A 96 well white plate was obtained from Corning (Corning, N.Y.). Bright-Glo was obtained from Promega (Madison, US). Dexamethasone was obtained from Sigma Chemicals (St. Louis, Mo.).
# CHO-GRE-Luc #35 cells were cultured for several days in a 10 cm dish in a medium (10% FBS/DMEM:HAM'S F12/2.5 mM L-glutamine/50 U/mL penicillin/25 μg/mL streptomycin/500 μg/mL G418). Sub-confluent cells were washed with a suitable amount of PBS(−), 1 ml of Trypsin-EDTA was added and the cells were stood still in a CO2 incubator at 37° C. for 3 min. A 10-fold amount of Opti-MEM medium was added to give a suspension, which was placed in a centrifugal tube and centrifuged (25° C., 1,000 rpm, 5 min). The supernatant was removed, and the cells were suspended in 5 ml of Opti-MEM medium and counted.
# Storage solutions (5-20 mM) of the compound were prepared with DMSO. The storage solutions were diluted with DMSO to 1 mM, and further diluted 100-fold with distilled water or Opti-MEM medium to give solutions. The preparations were diluted with 1% DMSO solution to each concentration. As GR agonist, 10 nM dexamethasone was used. 0.2% DMSO was present at the time of the function assay.
# The prepared compound solutions (evaluation compound solution or 1% DMSO solution 10 μL+dexamethasone or 1% DMSO solution 10 μL) were added to the plate. After the addition, the place was stood still in a CO2 incubator at 37° C. for about 6 hr. After the reaction, Bright-Glo was added at 20 μL/well, and the mixture was gently shaken and measured by a microplate luminometer (Turner Designs Instrument).
# The IC50 value (nM) of the evaluation compound against GR stimulation with dexamethasone was calculated using Prism 3.0 as an analysis software and assuming one-site competition.
# [1] = against GR stimulation with 10 nM dexamethasone, luciferase, about 6 hr, read-out: GR (IC50: nM)
SMILES,IC50 [1] [nM],IC50 [nM]
"Cc1noc(C)c1-c1cc2c(c3c1CCC3)NC(C)(C)C(=O)C2(C)C [Example 2, 6-(3,5-dimethylisoxazol-4-yl)-2,2,4,4-tetramethyl-2,3,4,7,8,9-hexahydro-1H-cyclopenta[h]quinolin-3-one]",30,
"Cc1nnn(C)c1-c1cc2c(c3c1CCC3)NC(C)(C)C(=O)C2(C)C [Example 4, 6-(3,5-dimethyl-3H-[1,2,3]triazol-4-yl)-2,2,4,4-tetramethyl-2,3,4,7,8,9-hexahydro-1H-cyclopenta[h]quinolin-3-one]",86,
"CC1(C)Nc2c(cc(-c3ccnc4cc[nH]c34)c3c2CCC3)C(C)(C)C1=O [Example 13, 2,2,4,4-tetramethyl-6-(1H-pyrrolo[3,2-b]pyridin-7-yl)-2,3,4,7,8,9-hexahydro-1H-cyclopenta[h]quinolin-3-one]",31,
"CC1(C)Nc2c(cc(-c3cccc4nccn34)c3c2CCC3)C(C)(C)C1=O [Example 14, 6-(imidazo[1,2-a]pyridin-5-yl)-2,2,4,4-tetramethyl-2,3,4,7,8,9-hexahydro-1H-cyclopenta[h]quinolin-3-one]",21,
"CC1(C)Nc2c(cc(-c3cccc4nncn34)c3c2CCC3)C(C)(C)C1=O [Example 17, 2,2,4,4-tetramethyl-6-([1,2,4]triazolo[4,3-a]pyridin-5-yl)-2,3,4,7,8,9-hexahydro-1H-cyclopenta[h]quinolin-3-one]",,91
"CC1(C)Nc2c(cc(-c3cccc4ncccc34)c3c2CCC3)C(C)(C)C1=O [Example 20, 2,2,4,4-tetramethyl-6-(quinolin-5-yl)-2,3,4,7,8,9-hexahydro-1H-cyclopenta[h]quinolin-3-one]",74,
"CC1(C)Nc2c(cc(-c3ccnc4ncccc34)c3c2CCC3)C(C)(C)C1=O [Example 21, 2,2,4,4-tetramethyl-6-([1,8]naphthyridin-4-yl)-2,3,4,7,8,9-hexahydro-1H-cyclopenta[h]quinolin-3-one]",53,
"C=C1C(C)(C)Nc2c(cc(-c3c(C)ncn3C)c3c2CCC3)C1(C)C [Example 29, 6-(3,5-dimethyl-3H-imidazol-4-yl)-2,2,4,4-tetramethyl-3-methylene-2,3,4,7,8,9-hexahydro-1H-cyclopenta[h]quinoline]",69,
"C=CCC1(C)C(=O)C(C)(C)Nc2c1cc(-c1ccc(O)cc1C)c1c2CCC1 (stereo not shown) [Example 50, 4-allyl-6-(4-hydroxy-2-methylphenyl)-2,2,4-trimethyl-2,3,4,7,8,9-hexahydro-1H-cyclopenta[h]quinolin-3-one]",61,
"C=CCC1(C)C(=O)C(C)(C)Nc2c1cc(-c1c(C)noc1C)c1c2CCC1 (stereo not shown) [Example 51, 4-allyl-6-(3,5-dimethylisoxazol-4-yl)-2,2,4-trimethyl-2,3,4,7,8,9-hexahydro-1H-cyclopenta[h]quinolin-3-one]",33,
"C=CCC1(C)C(=O)C(C)(C)Nc2c1cc(-c1cccc3nccn13)c1c2CCC1 (stereo not shown) [Example 57, 4-allyl-6-(imidazo[1,2-a]pyridin-5-yl)-2,2,4-trimethyl-2,3,4,7,8,9-hexahydro-1H-cyclopenta[h]quinolin-3-one]",69,
"CCC1(C)C(=O)C(C)(C)Nc2c1cc(-c1cccc3nccn13)c1c2CCC1 (stereo not shown) [Example 58, 4-ethyl-6-(imidazo[1,2-s]pyridin-5-yl)-2,2,4-trimethyl-2,3,4,7,8,9-hexahydro-1H-cyclopenta[h]quinolin-3-one]",37,
"CC#CCC1(C)C(=O)C(C)(C)Nc2c1cc(-c1cccc3nccn13)c1c2CCC1 (stereo not shown) [Example 63, 4-(2-butynyl)-6-(imidazo[1,2-a]pyridin-5-yl)-2,2,4-trimethyl-2,3,4,7,8,9-hexahydro-1H-cyclopenta[h]quinolin-3-one]",48,
"Cc1noc(C)c1-c1cc2c(c3c1OCO3)NC(C)(C)C(=O)C2(C)C [Example 69, 4-(3,5-dimethylisoxazol-4-yl)-6,6,8,8-tetramethyl-6,7,8,9-tetrahydro-[1,3]dioxolo[4,5-h]quinolin-7-one]",77,
"CC1(C)Nc2c(cc(-c3cccc4nccn34)c3c2OCO3)C(C)(C)C1=O [Example 71, 4-(imidazo[1,2-a]pyridin-5-yl)-6,6,8,8-tetramethyl-6,7,8,9-tetrahydro-[1,3]dioxolo[4,5-h]quinolin-7-one]",59,
"CC1(C)Nc2c(cc(-c3cccc4ncccc34)c3c2OCO3)C(C)(C)C1=O [Example 72, 6,6,8,8-tetramethyl-4-(quinolin-5-yl)-6,7,8,9-tetrahydro-[1,3]dioxolo[4,5-h]quinolin-7-one]",40,
"C=CCC1(C)C(=O)C(C)(C)Nc2c1cc(-c1cccc3cc[nH]c13)c1c2OCO1 (stereo not shown) [Example 78, 6-allyl-4-(1H-indol-7-yl)-6,8,8-trimethyl-6,7,8,9-tetrahydro-[1,3]dioxolo[4,5-h]quinolin-7-one]",,94
"CC1(C)Nc2c(cc(-c3cccc4nccn34)c3c2OC(F)(F)O3)C(C)(C)C1=O [Example 82, 2,2-difluoro-4-(imidazo[1,2-a]pyridin-5-yl)-6,6,8,8-tetramethyl-6,7,8,9-tetrahydro-[1,3]dioxolo[4,5-h]quinolin-7-one]",111,
"Cc1noc(C)c1-c1cc2c(c3c1OCC3)NC(C)(C)C(=O)C2(C)C [Example 84, 6-(3,5-dimethylisoxazol-4-yl)-2,2,4,4-tetramethyl-1,2,3,4,8,9-hexahydro-furo[2,3-h]quinolin-3-one]",49,
"CC1(C)Nc2c(cc(-c3cccc4nccn34)c3c2CCO3)C(C)(C)C1=O [Example 88, 6-(imidazo[1,2-a]pyridin-5-yl)-2,2,4,4-tetramethyl-1,2,3,4,8,9-hexahydro-furo[2,3-h]quinolin-3-one]",66,
"CC1(C)Nc2c(cc(-c3ccnc4ncccc34)c3c2CCO3)C(C)(C)C1=O [Example 92, 2,2,4,4-tetramethyl-6-([1,8]naphthyridin-4-yl)-1,2,3,4,8,9-hexahydro-furo[2,3-h]quinolin-3-one]",73,
"Cc1onc(CO)c1-c1cc2c(c3ccoc13)NC(C)(C)C(=O)C2(C)C [Example 94, 6-(3-hydroxymethyl-5-methylisoxazol-4-yl)-2,2,4,4-tetramethyl-1,2,3,4-tetrahydro-furo[2,3-h]quinolin-3-one]",66,
"CC1(C)Nc2c(cc(-c3cccc4nccn34)c3occc23)C(C)(C)C1=O [Example 98, 6-(imidazo[1,2-a]pyridin-5-yl)-2,2,4,4-tetramethyl-1,2,3,4-tetrahydro-furo[2,3-h]quinolin-3-one]",31,
"CC1(C)Nc2c(cc(-c3cncc4nccn34)c3occc23)C(C)(C)C1=O [Example 100, 6-(imidazo[1,2-a]pyrazin-5-yl)-2,2,4,4-tetramethyl-1,2,3,4-tetrahydro-furo[2,3-h]quinolin-3-one]",47,
"CC1(C)Nc2c(cc(-c3cccc4ncccc34)c3occc23)C(C)(C)C1=O [Example 101, 2,2,4,4-tetramethyl-6-(quinolin-5-yl)-1,2,3,4-tetrahydro-furo [2,3-h]quinolin-3-one]",37,
